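Results reflect a 48-hour exposure of cells in 96-well plates to compound at five concentrations. At the GI50, growth is halved.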 Active and inactive are the calls of the source. Rule as the data show it: active = GI50 up to about 1.1 µM and inactive = higher.
Tests used:
Assay in all cases: NCI tumour cell line growth inhibition, 48 h
MOLT-4 = tested on: MOLT-4
UACC-62 = tested on: UACC-62
SNB-19 = tested on: SNB-19
SF-268 = tested on: SF-268
CAKI-1 = tested on: CAKI-1
SF-539 = tested on: SF-539
UO-31 = tested on: UO-31
HCC 2998 = tested on: HCC 2998
K562 = tested on: K562
SK-OV-3 = tested on: SK-OV-3
HOP-62 = tested on: HOP-62
NCI-H23 = tested on: NCI-H23
IGROV-1 = tested on: IGROV-1
M14 = tested on: M14
RPMI-8226 = tested on: RPMI-8226
A549 = tested on: A549
KM-20L2 = tested on: KM-20L2
HL-60 = tested on: HL-60
HCT-116 = tested on: HCT-116
SK-MEL-5 = tested on: SK-MEL-5

Row | SMILES | GI50 (MOLT-4) | GI50 (UACC-62) | GI50 (SNB-19) | GI50 (SF-268) | GI50 (CAKI-1) | GI50 (SF-539) | GI50 (UO-31) | GI50 (HCC 2998) | GI50 (K562) | GI50 (SK-OV-3) | GI50 (HOP-62) | GI50 (NCI-H23) | GI50 (IGROV-1) | GI50 (M14) | GI50 (RPMI-8226) | GI50 (A549) | GI50 (KM-20L2) | GI50 (HL-60) | GI50 (HCT-116) | GI50 (SK-MEL-5)
1 | COc1ccc(-c2cc(O)c3cc(C)cnc3n2)cc1 | 4.43 µM (inactive) | 4.29 µM (inactive) | > 100 µM (inactive) | 6.81 µM (inactive) | 6.11 µM (inactive) | 6.41 µM (inactive) | 7.85 µM (inactive) | 14.5 µM (inactive) | 2.29 µM (inactive) | 4.14 µM (inactive) | 6.56 µM (inactive) | 6.19 µM (inactive) | 4.12 µM (inactive) | 3.94 µM (inactive) | 3.73 µM (inactive) | 8.65 µM (inactive) |  |  |  | 
2 | CC/C(CC(=O)CCC(=O)Nc1ccc(C)c(C)c1)=N\NC(=O)c1cc2ccccc2cc1O | 11.4 µM (inactive) | 14.6 µM (inactive) | 39.1 µM (inactive) | 22.1 µM (inactive) | 20.8 µM (inactive) |  | 26 µM (inactive) | 18.4 µM (inactive) | 21.8 µM (inactive) | 13.6 µM (inactive) | 26 µM (inactive) | 23.6 µM (inactive) | 19 µM (inactive) | 17.1 µM (inactive) |  |  | > 10 µM (inactive) | 1.92 µM (inactive) | 37.6 µM (inactive) | 
3 | CC1=CC2=C(C=O)C(=O)[C@](C)(O)[C@@H](O)C2=CO1 | 15.6 µM (inactive) | 23.5 µM (inactive) | 0.982 µM (active) | 24.9 µM (inactive) | 33.5 µM (inactive) | 29.4 µM (inactive) | 16.8 µM (inactive) | 19.1 µM (inactive) | 27.9 µM (inactive) | 19.5 µM (inactive) | 24.3 µM (inactive) | 37.2 µM (inactive) | 32.1 µM (inactive) |  | 15.9 µM (inactive) | 28 µM (inactive) | 1.21 µM (inactive) |  | 22.3 µM (inactive) | 24.6 µM (inactive)
4 | O=C1C=C2SC3C[C@@]24CC1(O)[N+]1=c2c4c(c(O)c4c2=C(C=N4)CC1)N3 | 0.268 µM (active) | 0.533 µM (active) | 1.74 µM (inactive) | 1.01 µM (active) | 2.24 µM (inactive) | 1.51 µM (inactive) | 1.89 µM (inactive) |  | 0.64 µM (active) | 1.95 µM (inactive) | 1.82 µM (inactive) | 1.3 µM (inactive) | 1.57 µM (inactive) |  | 0.457 µM (active) | 2 µM (inactive) | 0.313 µM (active) | 0.217 µM (active) | 0.217 µM (active) | 1.5 µM (inactive)
5 | N#CCCN(CCC#N)c1ccc(/C=C2\N=C(c3cc([N+](=O)[O-])ccc3Cl)N(NC(=O)CC(=O)Nc3ccccc3Cl)C2=O)cc1 | > 100 µM (inactive) | > 100 µM (inactive) | > 100 µM (inactive) | > 100 µM (inactive) | > 100 µM (inactive) | > 100 µM (inactive) | > 100 µM (inactive) | > 100 µM (inactive) | > 100 µM (inactive) | > 100 µM (inactive) | > 100 µM (inactive) | > 100 µM (inactive) | > 100 µM (inactive) | > 100 µM (inactive) | > 100 µM (inactive) | > 100 µM (inactive) | 16.3 µM (inactive) |  | > 100 µM (inactive) | > 100 µM (inactive)
6 | CCOCC(=O)N(C)c1cccc2c3c(n(C)c12)CCCCC3 | > 61.5 µM (inactive) | > 100 µM (inactive) | > 23.8 µM (inactive) | > 100 µM (inactive) | 0.798 µM (active) | > 100 µM (inactive) |  | > 100 µM (inactive) | > 62.4 µM (inactive) | > 100 µM (inactive) | > 100 µM (inactive) | > 100 µM (inactive) | > 100 µM (inactive) |  |  | > 100 µM (inactive) | > 100 µM (inactive) | > 100 µM (inactive) | > 100 µM (inactive) | > 100 µM (inactive)
7 | COc1ccc(NC(=O)/C(=C/c2ccc(N(CCC#N)CCC#N)cc2)NC(=O)c2cc([N+](=O)[O-])ccc2Cl)cc1 | 83.8 µM (inactive) | 13.3 µM (inactive) | > 100 µM (inactive) | 27.2 µM (inactive) | 26.2 µM (inactive) | 18.9 µM (inactive) | 9.91 µM (inactive) | 45.8 µM (inactive) | 6.76 µM (inactive) | > 100 µM (inactive) | 33.2 µM (inactive) | > 100 µM (inactive) | 65.9 µM (inactive) | > 100 µM (inactive) | > 100 µM (inactive) | 15.5 µM (inactive) | 36.2 µM (inactive) |  | 48.2 µM (inactive) | > 100 µM (inactive)
8 | NC(CSC(=O)c1ccccc1)C(=O)O (configuration not stated) | > 100 µM (inactive) | > 100 µM (inactive) | > 100 µM (inactive) | > 100 µM (inactive) | > 100 µM (inactive) | > 100 µM (inactive) | > 100 µM (inactive) |  |  | > 100 µM (inactive) | > 100 µM (inactive) | > 100 µM (inactive) | > 100 µM (inactive) | > 100 µM (inactive) | > 100 µM (inactive) | > 100 µM (inactive) |  | > 100 µM (inactive) | > 100 µM (inactive) | > 100 µM (inactive)
9 | Cn1c2c(c3ccccc31)CCN(CCCN1CCN(c3ccccc3)CC1)C2=O | 13.3 µM (inactive) | 19.3 µM (inactive) |  | 25.7 µM (inactive) | 16.7 µM (inactive) | 17.6 µM (inactive) | 14.7 µM (inactive) |  | 17.3 µM (inactive) | 19.9 µM (inactive) |  | 20.5 µM (inactive) | 20.8 µM (inactive) | 16.4 µM (inactive) | 16 µM (inactive) | 23.6 µM (inactive) | 12.8 µM (inactive) | 13.5 µM (inactive) | 16.1 µM (inactive) | 18.9 µM (inactive)
10 | CN(C)C(=S)/N=C1\SC(=N\c2ccccc2)/C(=N/c2ccccc2)N1c1ccc([N+](=O)[O-])cc1 | 38.5 µM (inactive) | > 100 µM (inactive) | > 100 µM (inactive) |  | > 100 µM (inactive) |  | > 100 µM (inactive) | > 100 µM (inactive) | > 100 µM (inactive) | > 100 µM (inactive) | > 100 µM (inactive) | > 100 µM (inactive) | > 100 µM (inactive) | > 100 µM (inactive) | > 100 µM (inactive) |  |  | > 100 µM (inactive) | > 100 µM (inactive) | > 100 µM (inactive)
11 | CC(NC(=O)C(NC(=O)CNC(=O)OC(C)(C)C)C(C)C)C(=O)Oc1c(Cl)c(Cl)c(Cl)c(Cl)c1Cl (configuration not stated) | 34.6 µM (inactive) | 18.2 µM (inactive) | 30.8 µM (inactive) | 23 µM (inactive) | 19 µM (inactive) | 17.5 µM (inactive) | 16 µM (inactive) | 19.6 µM (inactive) | 50.7 µM (inactive) | 21.5 µM (inactive) | 18.4 µM (inactive) | 14 µM (inactive) | 20.3 µM (inactive) | 18.8 µM (inactive) | 45.2 µM (inactive) | 22.4 µM (inactive) |  | 55.2 µM (inactive) | 17.3 µM (inactive) | 17.1 µM (inactive)
